Marks after values point to notes of the source that are not given here.
Key:
[1] = system: acetic acid-induced writhing; assay: Anti-nociception writhing test (acetic acid); format: in vivo, Fisher 344 rats; conditions: 0.0057 mmol/kg body weight i.p., 0.6% acetic acid after 30 min
Description: The acetic acid-induced writhing test is a quick, simple and reproducible method, despite the fact that it lacks specialization. […] The animals (Fisher 344 rats), were housed under standard conditions, and received a diet of commercial food pellets and water ad libitum during the maintenance, but were entirely fasted during the experiment period. Both sexes were used, while pregnant females were excluded. Each group was composed of 6–15 animals. Our studies were in accordance with recognized guidelines on animal experimentation (guidelines for the care and use of laboratory animals published by the Greek Government 160/1991, based on EU regulations 86/609). Rats were kept in the Centre of the School of Veterinary Medicine (EL54 BIO42), Aristotle University of Thessaloniki, which is registered by the official state veterinary authorities (presidential degree 56/2013, in harmony with the European Directive 2010/63/EEC). The experimental protocols were approved by the Animal Ethics Committee of the Prefecture of Central Macedonia. For the study of the analgesic activity of the tested compounds, pain is provoked with acetic acid. Animals were divided in three five-membered groups, according to our reported method. After treatment with the tested compounds (0.0057 mmol/kg body weight; intraperitoneally) in the first group, the second group was used as a positive control (aspirin; 0.0057 mmol/kg body weight i.p.) and the third group served as the control in which saline was administered (negative control). After 30 min, 0.6% acetic acid (1 mL/kg body weight) was injected i.p. The number of writhes was recorded for each animal every 5 min during a subsequent 30 min period (Table 6).

[2] = system: carrageenin-induced rat paw edema; assay: Inhibition of the carrageenin-induced rat paw edema; format: in vivo, Fisher 344 rats; conditions: 0.0057 mmol/Kg body weight, intraperitoneally, 3.5 h after carrageenin
Description: The carrageenin-induced rat paw edema assay was used, as a model of acute inflammation. Inflammation induced by carrageenan is acute, non-immune, well-researched, and highly reproducible, and is described as a biphasic event. Cardinal signs of inflammation—edema, hyperalgesia, and erythema, are developed immediately following subcutaneous injection, resulting from the action of pro-inflammatory agents: bradykinin, histamine, tachykinins, complement reactive oxygen and nitrogen species. It is known that NSAIDs act during the second phase of prostaglandin release, presenting weak activity in the first phase of histamine and serotonin release.
(§1) The animals (Fisher 344 rats), were housed under standard conditions, and received a diet of commercial food pellets and water ad libitum during the maintenance, but were entirely fasted during the experiment period. Both sexes were used, while pregnant females were excluded. Each group was composed of 6–15 animals. Our studies were in accordance with recognized guidelines on animal experimentation (guidelines for the care and use of laboratory animals published by the Greek Government 160/1991, based on EU regulations 86/609). Rats were kept in the Centre of the School of Veterinary Medicine (EL54 BIO42), Aristotle University of Thessaloniki, which is registered by the official state veterinary authorities (presidential degree 56/2013, in harmony with the European Directive 2010/63/EEC). The experimental protocols were approved by the Animal Ethics Committee of the Prefecture of Central Macedonia.
Carrageenin in water as an intradermal injection of 0.1 mL 2% was used for the induction of the edema in the right hind paw of the rats, according to the previously reported method. Animals were divided in five-membered groups and the tested compounds were suspended in water (0.0057 mmol/kg body weight), with a few drops of Tween 80, ground in a mortar before administered intraperitoneally simultaneously. The rats were euthanized 3.5 h after carrageenin injection. Comparison of the change in paw weight with that in control animals (treated with water) was expressed as a percent inhibition of the oedema CPE% values using indomethacin (IMA) as a reference compound. Values CPE% are the mean from two different experiments with a standard error of the mean less than 10% (Table 5). Student’s T test was applied.

[3] = system: adjuvant-induced disease (AID); assay: Adjuvant-induced disease (AID); format: in vivo, Fisher 344 rats; conditions: AID rats
Protocol: Adjuvant-induced disease (AID) is a good experimental model for rheumatoid arthritis, and is often used in testing agents for anti-inflammatory activity. The compound was administered intraperitoneally on the 1st day, i.e., the day of the administration of Freund’s adjuvant (FA), and once every other day for the following 24 days. Adjuvant arthritis was developed about 14 days post-FA administration. […] The effect of the tested compound on inflammation is shown in Table 7 and the time course of adjuvant arthritis development expressed as arthritic score is shown in Figure 2. In the same experimental model, Indomethacin (IMA) was used as a reference compound.
as §1
Rats were divided into four groups (five-membered groups of animals were used): groups one, two and three were injected intradermally with 0.1 mL Freund’s adjuvant (FA) into the base of the tails of the animals; group three was the FA control rats; group four was injected with saline, used as an absolute control. Compound 2d (group 1) and indomethacin (group 2) were injected i.p. once every other day for the following 24 days in a dose of 0.00057 mmol/mL/kg body weight (Table 7). Adjuvant arthritis was developed circa 14 days post-FA administration. Arthritic score was measured every 2 days from the commencement (14th day) day. Arthritic score was assessed on the 24th day. For quantification of arthritis (arthritic score); a single point was assigned for each wrist or ankle area and an additional point was given for each involved phalangeal joint, up to a maximum of five points per extremity.
On the 24th day and at least 12 h after the last injection, animals were administered zoxazolamine i.p. […], as an aqueous suspension with a few drops of Tween 80, and the duration of the paralysis were assessed (Table 7) (Figure 2). The experiment was conducted in duplicate.

[4] = Reducing activity of the stable radical DPPH; format: biochemical
Protocol: The novel derivatives were studied for their interaction with the stable 2,2-diphenyl-1-picrylhydrazyl free radical (DPPH) at concentrations 50 µM, 100 µM, 200 µM and after 20 and 60 min (Table 3). This assay is based on the reduction of the DPPH by transferring an electron from the antioxidant. […] However, it seems that the interaction is dependent on the concentration and on the reaction time. From this point of view, it can be concluded that the acetyl pyrazolyl derivatives 2c and 2f seem to present the highest scavenging activities. An increase in concentration favors the activity. […] As for compounds 2a, 2b, 2c and 2f, activity seems to be time dependent at 200 µM. […] The presence of a chlorine group in 2e pyrazoline leads to an activity increase (compared to 2d) in concentration 200 µM. The acetyl derivative 2f presents better activity than 2b at 200 µM.
(§2) A stock solution (1% DMSO in the appropriate buffer with the tested compound diluted under sonication) was prepared for the in vitro assays from which several dilutions were made with the appropriate buffer. The in vitro experiments were performed at least in triplicate, and the standard deviation of absorbance was less than 10% of the mean.
A stock solution (10 mM) of the novel derivatives in DMSO was prepared and an equal volume of it was added to a solution of DPPH in absolute ethanol to reach final concentrations 50, 100 µM and 200 µM. The absorbance was recorded at 517 nm, after 20 and 60 min at room temperature (Table 3).

[5] = Inhibition of linoleic acid lipid peroxidation (AAPH); format: biochemical
Protocol: For the lipid peroxidation study, 2,2′-azobis(2-amidinopropane) hydrochloride (AAPH) was used for the generation of peroxyl radicals. The generation of the conjugated diene hydroperoxide derived from the oxidation of sodium linoleate in an aqueous solution was recorded at 234 nm. The compounds presented high anti-lipid peroxidation activity (78–100%) (Table 4). Pyrazolines 2a and 2b present lower anti-lipid peroxidation activity (89% and 78% respectively).
as §2
AAPH was used as free radical initiator of alkylperoxyl radicals. The ability of the compounds to prevent the oxidation of linoleic acid sodium salt from alkylperoxyl radicals was recorded at 234 nm. Trolox was used as reference (93%) (Table 4).

[6] = ABTS+ decolorization assay for antioxidant activity; format: biochemical
Description: Pyrazolines 2d and 2e which are the most lipophilic compounds, showing antioxidant activity using the ABTS radical cation (ABTS^•+) generated through potassium persulfate by oxidation with no participation of an intermediary radical. This reduction is completed by adding electron-donating antioxidants. It seems that lipophilicity influences the activity, since both present high lipophilicity values.
as §2
The ABTS radical cation (ABTS^+•) was generated by mixing ABTS stock solution in water (7 mM) with potassium persulfate (2.45 mM) and left in the dark at room temperature for 12–16 h before use. The results are recorded immediately after the mixing solutions at 734 nm. The results were compared to the appropriate standard inhibitor Trolox (Table 4).

[7] = 0.00057 mmol/mL/kg i.p. every other day for 24 days

## CC(=O)Oc1ccccc1C(=O)O [Aspirin, acetylsalicylic acid, reference compound]
[1]
  Writhing Inhibition (%): 77 ** %

## COc1ccc2c(c1)c(CC(=O)O)c(C)n2C(=O)c1ccc(Cl)cc1 [Indomethacin, reference compound]
[2]
  CPE % (reduction in the rat paw edema induced by carrageenin): 47 ** %
[3]; [7]
  Percent change in body weight (g ± SD): 8.3 ± 0.2 g
  Percent change in liver weight (g ± SD): 6.3 ± 0.4 g
[3]; 24th day, zoxazolamine i.p.
  Zoxazolamine paralysis (minutes ± SD): 217 ± 17 min

## CC(Cc1ccc(O)c(O)c1)C(C)Cc1ccc(O)c(O)c1 (stereo not drawn) [NDGA, Nordihydroguaretic acid, reference compound]
[4]; 50 µM, 20 min
  RA% 50 µM 20 min: 81%
[4]; 50 µM, 60 min
  RA% 50 µM 60 min: 83%
[4]; 100 µM, 20 min
  RA% 100 µM 20 min: 87%
[4]; 200 µM, 20 min
  RA% 200 µM 20 min: 94%
[4]; 200 µM, 60 min
  RA% 200 µM 60 min: 96%

## Cc1c(C)c2c(c(C)c1O)CCC(C)(C(=O)O)O2 (stereo not drawn) [Trolox, 6-Hydroxy-2,5,7,8-tetramethyl-chroman-2-carboxylic acid, reference compound]
[5]
  AAPH% 100 µM (anti-lipid peroxidation): 93%
[6]
  ABTS^+ % 100 µM (decolorization activity): 91%

Source: PMC8201324, “Pyrazoles and Pyrazolines as Anti-Inflammatory Agents” (Molecules, 2021)
